Columns and labels:
[1] = Clinical study of CCOS analgesia in volunteers with painful conditions (short-form McGill Pain Questionnaire); assay type: in vivo, human; settings: patient
Experimental: This modification is a hybrid form utilizing both a Visual Analogue Scale rating pain from 0 (no pain) to 5 (excruciating) as well as a pain questionnaire rating the pain from 0 (no pain) to 3 (severe) along with the following descriptions:
To test the effectiveness of chitin chitosan oligosaccharide (CCOS) in providing satisfactory analgesia in both nociceptive and neuropathic pain, a clinical study was conducted with volunteers suffering from a variety of rather common painful conditions (see Table 11). Pain can be an extremely subjective phenomena; there is no laboratory or radiological test to measure its severity or indeed even its presence as described elsewhere p. 8). […] “There is a whole literature of validated, subjective tools that are absolutely reliable” (Melvin C. Gitlin, MD Professor of Anesthesiology, Tulane University School of Medicine and Director of the Pain Management Center at the Tulane University Hospital Clinic) The conditions of all of the volunteers in this study have been documented by physicians, in some cases more than one, and their pain substantiated. […] Our methods, utilizing human subjects is equally valid and acceptable (36). (see Modified McGill Pain form used as the basis to evaluate pain).

[2] = in vivo, po; cited from earlier work

## CC(=O)Oc1ccccc1C(=O)O [ASA]
[1]; acute pharangitis, nociceptive (inflammatory), CCOS 150 mg STAT then 100 mg PRN
  Degree of Pain Reduction: no significant improvement

## CC(=O)Nc1ccc(O)cc1 [Tylenol, Acetaminophen]
[1]; low back pain secondary to strain, nociceptive, CCOS 400 mg STAT then 300 mg QID
  Degree of Pain Reduction: little or no effect

## Chitin
[2]
  absorbed orally: 20-40%

— US6492350B2, “Chitin oligosaccharides and/or chitosan oligosaccharides for preventing or treating common cold or treating pain” (JDC (Hawaii) Inc., priority 2000, dated 2002)
